Among the data in patent US9096595B2, “7-(heteroaryl-amino)-6,7,8,9-tetrahydropyrido[1,2-a]indol acetic acid derivatives and their use as prostaglandin D2 receptor modulators” (Actelion Pharmaceuticals Ltd, priority 2011, dated 2015) are IC50 values, retold here.

For experiment [1], the target named is T1, hCRTH2 receptor (Homo sapiens (Human), UniProt Q9Y5Y4). The experiment can be described thus: hCRTH2 receptor membranes radioligand (3H-PGD2) displacement assay. Particulars: 3H-PGD2 2.5 nM, HEK293-hCRTH2 membrane fragments, Binding-Buffer with 0.1% BSA. Here is the method: (§1) First, recombinant HEK293-hCRTH2 cells were detached from culture plates into 5 ml buffer A/plate (Buffer A: 5 mM Tris, 1 mM MgCl2-6H2O pH=7.4) using a rubber policeman. Cells were then transferred into centrifugation tubes and centrifuged for 5 min at 400 g. The cell pellet was resuspended in the same buffer and tubes were frozen at −80° C. Cells were thawed and membrane fragments were generated by homogenization using a polytron homogenizer (30 seconds). The membrane fragments were then centrifuged at 3000 g for 20 minutes and resuspended in buffer C (Buffer C: 75 mM Tris, 25 mM MgCl2, 250 mM Saccharose pH 7.4). Aliquots of membrane fragments were stored at −20° C.
T1 sequence (Q9Y5Y4 whole entry, the tested form may be a part): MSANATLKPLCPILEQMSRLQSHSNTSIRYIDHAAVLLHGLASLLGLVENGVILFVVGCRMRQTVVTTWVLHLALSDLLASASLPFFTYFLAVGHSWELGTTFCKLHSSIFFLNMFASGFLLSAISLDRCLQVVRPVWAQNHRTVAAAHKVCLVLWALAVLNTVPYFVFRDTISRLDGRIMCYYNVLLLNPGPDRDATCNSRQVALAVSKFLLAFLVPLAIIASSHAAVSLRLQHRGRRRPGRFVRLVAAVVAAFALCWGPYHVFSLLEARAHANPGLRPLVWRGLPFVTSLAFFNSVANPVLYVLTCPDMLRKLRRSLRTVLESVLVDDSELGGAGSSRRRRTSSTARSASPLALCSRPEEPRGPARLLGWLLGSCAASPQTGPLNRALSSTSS
(§2) Binding assay was performed in a final assay volume of 250 μl. First, 25 μl of test compound, previously diluted in Binding-Buffer (Binding-Buffer: 50 mM Tris-Base, 100 mM NaCl, 1 mM EDTA, 0.1% BSA (protease free), 0.01% NaN3, 10 mM MnCl2 pH 7.0) was placed into each well. After addition of 75 μl Binding-Buffer, 50 μl of the radioligand ^3H-PGD2 (at 2.5 nM (220.000 dpm/well) from ANAWA ART0662) was added to each well. Binding assay was started by addition of 100 μl CRTH2 membrane fragments, reaching a final concentration of 20 μg/well. For non-specific binding, PGD2 was added to the reaction mixture to […] final concentration. This assay mix was incubated for 90 minutes at room temperature and then filtered through a GF/C filter 96-well plate which was pre-soaked for 3 hours in 0.5% polyethyleneimine (PEI). The filter-wells were washed three times with ice cold Binding-Buffer. Then, 40 μl of Microscint-40 (Packard) was added to each well and the retained radioactivity quantified in a Topcount (Packard).

In experiment [2] the target is T1, hCRTH2 receptor. The experiment can be described thus: Radioligand displacement assay in presence of human serum albumin (HSA). Particulars: 3H-PGD2 2.5 nM, HEK293-hCRTH2 membrane fragments, Binding-Buffer-HSA with 0.5% human serum albumin instead of 0.1% BSA. Here is the method: as §1, §2
Radioligand displacement assay in presence of human serum albumin (HSA) was performed as described above, with following modifications. Binding-Buffer-HSA: Binding-buffer+0.5% Sigma Albumin from Human serum A1887 (instead of 0.1% BSA). A volume of 25 μl test compound, previously diluted in Binding-Buffer-HSA was placed into each well. After addition of 75 μl Binding-Buffer-HSA, 50 μl of ^3H-PGD2 (at 2.5 nM (220.000 dpm/well) from ANAWA ART0662) was added to each well. Remaining protocol was identical as described above.

A word on the IC50: it is the concentration that inhibits the measured activity by half. Consider `CN(c1ncc(C(F)(F)F)cn1)C1CCc2c(CC(=O)O)c3ccc(F)cc3n2C1` (stereo not drawn) [Example 18, 2-(3-fluoro-7-(methyl(5-(trifluoromethyl)pyrimidin-2-yl)amino)-6,7,8,9-tetrahydropyrido[1,2-a]indol-10-yl)acetic acid], for which the concentration for half-maximal inhibition (IC50) in experiment [1] stood at 6 nM; in experiment [2], 71 nM.
In the case of `CN(c1nc2ccc(F)cc2o1)C1CCc2c(CC(=O)O)c3ccc(F)cc3n2C1` (stereo not drawn) [Example 20, 2-(3-fluoro-7-((6-fluorobenzo[d]oxazol-2-yl)(methyl)amino)-6,7,8,9-tetrahydropyrido[1,2-a]indol-10-yl)acetic acid], the half-maximal inhibitory concentration (IC50) was determined as 1 nM in experiment [1] and 20 nM in experiment [2].
For `CN(c1ncc(Cl)cn1)C1CCc2c(CC(=O)O)c3ccc(Cl)cc3n2C1` (stereo not drawn) [Example 21, 2-(3-chloro-7-((5-chloropyrimidin-2-yl)(methyl)amino)-6,7,8,9-tetrahydropyrido[1,2-a]indol-10-yl)acetic acid] the same measures were 7 nM and 31 nM.
For `CN(c1ncc(Cl)cn1)C1CCc2c(CC(=O)O)c3ccc(C(F)(F)F)cc3n2C1` (stereo not drawn) [Example 22, 2-(7-((5-chloropyrimidin-2-yl)(methyl)amino)-3-(trifluoromethyl)-6,7,8,9-tetrahydropyrido[1,2-a]indol-10-yl)acetic acid] the same measures were 9 nM and 38 nM.
For `CN(c1ncc(F)cn1)C1CCc2c(CC(=O)O)c3ccc(C(F)(F)F)cc3n2C1` (stereo not drawn) [Example 24, 2-(7-((5-fluoropyrimidin-2-yl)(methyl)amino)-3-(trifluoromethyl)-6,7,8,9-tetrahydropyrido[1,2-a]indol-10-yl)acetic acid], in that order: 5 nM and 11 nM.
For the compound `CN(c1nc2ccc(F)cc2s1)C1CCc2c(CC(=O)O)c3ccc(C(F)(F)F)cc3n2C1` (stereo not drawn) [Example 26, 2-(7-((6-fluorobenzo[d]thiazol-2-yl)(methyl)amino)-3-(trifluoromethyl)-6,7,8,9-tetrahydropyrido[1,2-a]indol-10-yl)acetic acid], the figures for the half-inhibitory concentration (IC50) in experiment [1] and in experiment [2] were 16 nM and 15 nM, respectively.
In the case of `CN(c1nc2cc(F)ccc2o1)C1CCc2c(CC(=O)O)c3ccc(C(F)(F)F)cc3n2C1` (stereo not drawn) [Example 28, 2-(7-((5-fluorobenzo[d]oxazol-2-yl)(methyl)amino)-3-(trifluoromethyl)-6,7,8,9-tetrahydropyrido[1,2-a]indol-10-yl)acetic acid], the concentration for half-maximal inhibition (IC50) in experiment [1] worked out at 8 nM; in experiment [2], 20 nM.
For `CN(c1nc2cc(F)ccc2o1)C1CCc2c(CC(=O)O)c3ccc(Cl)cc3n2C1` (stereo not drawn) [Example 31, 2-(3-chloro-7-((5-fluorobenzo[d]oxazol-2-yl)(methyl)amino)-6,7,8,9-tetrahydropyrido[1,2-a]indol-10-yl)acetic acid], in that order: 5 nM and 13 nM.
For `O=C(O)Cc1c2n(c3cc(F)ccc13)CC(Nc1ncc(F)cn1)CC2` (stereo not drawn) [Example 34, 2-(3-fluoro-7-((5-fluoropyrimidin-2-yl)amino)-6,7,8,9-tetrahydropyrido[1,2-a]indol-10-yl)acetic acid], in that order: 9 nM and 304 nM.
For `O=C(O)Cc1c2n(c3cc(F)ccc13)CC(Nc1nc3cc(F)ccc3o1)CC2` (stereo not drawn) [Example 35, 2-(3-fluoro-7-((5-fluorobenzo[d]oxazol-2-yl)amino)-6,7,8,9-tetrahydropyrido[1,2-a]indol-10-yl)acetic acid] the same measures were 11 nM and 20 nM.
On to `O=C(O)Cc1c2n(c3cc(Cl)ccc13)CC(Nc1ncc(F)cn1)CC2` (stereo not drawn) [Example 36, 2-(3-chloro-7-((5-fluoropyrimidin-2-yl)amino)-6,7,8,9-tetrahydropyrido[1,2-a]indol-10-yl)acetic acid], for which the IC50 in experiment [1] was 65 nM; in experiment [2], 465 nM.
For `O=C(O)Cc1c2n(c3cc(Cl)ccc13)CC(Nc1ncc(Cl)cn1)CC2` (stereo not drawn) [Example 37, 2-(3-chloro-7-((5-chloropyrimidin-2-yl)amino)-6,7,8,9-tetrahydropyrido[1,2-a]indol-10-yl)acetic acid], in that order: 27 nM and 385 nM.
For `Cc1cnc(N(C)C2CCc3c(CC(=O)O)c4ccc(Cl)cc4n3C2)nc1` (stereo not drawn) [Example 38, 2-(3-chloro-7-(methyl(5-methylpyrimidin-2-yl)amino)-6,7,8,9-tetrahydropyrido[1,2-a]indol-10-yl)acetic acid] the same measures were 2 nM and 246 nM.
For `CN(c1ncc2ccccc2n1)C1CCc2c(CC(=O)O)c3ccc(Cl)cc3n2C1` (stereo not drawn) [Example 39, 2-(3-chloro-7-(methyl(quinazolin-2-yl)amino)-6,7,8,9-tetrahydropyrido[1,2-a]indol-10-yl)acetic acid] the same measures were 3 nM and 5 nM.
Consider `CN(c1ncc2cc(F)ccc2n1)C1CCc2c(CC(=O)O)c3ccc(Cl)cc3n2C1` (stereo not drawn) [Example 40, 2-(3-chloro-7-((6-fluoroquinazolin-2-yl)(methyl)amino)-6,7,8,9-tetrahydropyrido[1,2-a]indol-10-yl)acetic acid], for which the IC50 in experiment [1] stood at 5 nM; in experiment [2] it was 4 nM.
`CN(c1ncc2ccc(F)cc2n1)C1CCc2c(CC(=O)O)c3ccc(Cl)cc3n2C1` (stereo not drawn) [Example 41, 2-(3-chloro-7-((7-fluoroquinazolin-2-yl)(methyl)amino)-6,7,8,9-tetrahydropyrido[1,2-a]indol-10-yl)acetic acid]: the IC50 in experiment [1] was determined as 1 nM; in experiment [2], 37 nM.
For `CN(c1cnc2cc(F)ccc2n1)C1CCc2c(CC(=O)O)c3ccc(Cl)cc3n2C1` (stereo not drawn) [Example 43, 2-(3-chloro-7-((6-fluoroquinoxalin-2-yl)(methyl)amino)-6,7,8,9-tetrahydropyrido[1,2-a]indol-10-yl)acetic acid] the same measures were 2 nM and 12 nM.
For `O=C(O)Cc1c2n(c3cc(Cl)ccc13)CC(N(CC(F)F)c1nc3cc(F)ccc3o1)CC2` (stereo not drawn) [Example 44, 2-(3-chloro-7-((2,2-difluoroethyl)(5-fluorobenzo[d]oxazol-2-yl)amino)-6,7,8,9-tetrahydropyrido[1,2-a]indol-10-yl)acetic acid], in that order: 3 nM and 6 nM.
For `CCN(c1ncc(F)cn1)C1CCc2c(CC(=O)O)c3ccc(Cl)cc3n2C1` (stereo not drawn) [Example 45, 2-(3-chloro-7-(ethyl(5-fluoropyrimidin-2-yl)amino)-6,7,8,9-tetrahydropyrido[1,2-a]indol-10-yl)acetic acid] the same measures were 1 nM and 3 nM.
In the case of `CC(C)N(c1nc2cc(F)ccc2o1)C1CCc2c(CC(=O)O)c3ccc(Cl)cc3n2C1` (stereo not drawn) [Example 46, 2-(3-chloro-7-((5-fluorobenzo[d]oxazol-2-yl)(isopropyl)amino)-6,7,8,9-tetrahydropyrido[1,2-a]indol-10-yl)acetic acid], the values for the IC50 in experiment [1] and in experiment [2] were 3 nM and 5 nM, respectively.
`COCCN(c1ncc(F)cn1)C1CCc2c(CC(=O)O)c3ccc(Cl)cc3n2C1` (stereo not drawn) [Example 47, 2-(3-chloro-7-((5-fluoropyrimidin-2-yl)(2-methoxyethyl)amino)-6,7,8,9-tetrahydropyrido[1,2-a]indol-10-yl)acetic acid]: the IC50 came out at 0.8 nM in experiment [1] and 69 nM in experiment [2].
For `CC(C)CN(c1nc2cc(F)ccc2o1)C1CCc2c(CC(=O)O)c3ccc(Cl)cc3n2C1` (stereo not drawn) [Example 48, 2-(3-chloro-7-((5-fluorobenzo[d]oxazol-2-yl)(isobutyl)amino)-6,7,8,9-tetrahydropyrido[1,2-a]indol-10-yl)acetic acid], in that order: 2 nM and 6 nM.
For `CCCN(c1ncc(F)cn1)C1CCc2c(CC(=O)O)c3ccc(Cl)cc3n2C1` (stereo not drawn) [Example 49, 2-(3-chloro-7-((5-fluoropyrimidin-2-yl)(propyl)amino)-6,7,8,9-tetrahydropyrido[1,2-a]indol-10-yl)acetic acid] the same measures were 1 nM and 21 nM.
For `CCN(c1nc2cc(F)ccc2o1)C1CCc2c(CC(=O)O)c3ccc(Cl)cc3n2C1` (stereo not drawn) [Example 50, 2-(3-chloro-7-(ethyl(5-fluorobenzo[d]oxazol-2-yl)amino)-6,7,8,9-tetrahydropyrido[1,2-a]indol-10-yl)acetic acid], the figures for the concentration for half-maximal inhibition (IC50) in experiment [1] and in experiment [2] were 1 nM and 9 nM, respectively.
